Source: article PMC8552062, “Contributions of UDP-Glucuronosyltransferases to Human Hepatic and Intestinal Metabolism of Ticagrelor and Inhibition of UGTs and Cytochrome P450 Enzymes by Ticagrelor and its Glucuronidated Metabolite” (Frontiers in Pharmacology, 2021)

Biological target: T1, UGT1A9 (Homo sapiens, UniProt O60656)
T1 sequence (O60656 26-530): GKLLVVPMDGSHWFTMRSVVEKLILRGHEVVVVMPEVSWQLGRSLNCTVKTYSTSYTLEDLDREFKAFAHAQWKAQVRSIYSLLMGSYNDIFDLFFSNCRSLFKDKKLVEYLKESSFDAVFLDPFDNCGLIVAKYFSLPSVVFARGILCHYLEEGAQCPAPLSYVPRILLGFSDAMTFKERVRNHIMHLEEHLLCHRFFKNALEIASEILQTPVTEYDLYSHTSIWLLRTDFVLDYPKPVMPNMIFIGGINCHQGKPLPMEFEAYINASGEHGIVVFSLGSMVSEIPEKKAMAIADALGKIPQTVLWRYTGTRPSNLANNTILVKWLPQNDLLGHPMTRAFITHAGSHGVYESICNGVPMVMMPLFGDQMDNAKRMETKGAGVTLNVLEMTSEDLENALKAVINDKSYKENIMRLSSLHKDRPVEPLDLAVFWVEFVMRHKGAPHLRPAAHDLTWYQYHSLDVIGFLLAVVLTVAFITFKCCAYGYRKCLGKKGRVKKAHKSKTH
Test: Ticagrelor glucuronidation by recombinant human UGT1A9
Assay type: in vitro ADME
Parameters: purchased BD Gentest; host or cells: baculovirus-infected insect cells
Conditions: recombinant human UGT1A9, pH 7.4
Procedure: Ticagrelor glucuronidation was investigated in an in vitro incubation system by using HLM, HIM, and recombinant human UGTs. The incubation system consisted of enzyme sources (HLM, HIM, or human recombinant UGTs), various concentrations of ticagrelor (dissolved in 50% methanol, 1% v/v, 1, 2, 5, 10, 20, 50, 100, 200, 500 μM of final concentration), alamethicin (50 μg/mg protein), 5 mM MgCl2, 100 mM tris-HCL buffer (pH 7.4), and 5 mM UDPGA in a total volume of 100 μl. Alamethicin is a pore-forming polypeptide used to activate UGTs in HLM and HIM ([Fisher et al., 2000]). Preliminary studies were conducted to determine the optimal protein concentrations and incubation times. Linear conditions of ticagrelor-O-Glu formation from ticagrelor, i.e., HLM, 0.2 mg of protein/ml and 60 min, HIM, 0.2 mg of protein/ml and 60 min, and recombinant human UGTs, 0.2 mg of protein/ml and 60 min were selected. The incubation mixture without UDPGA was placed on ice for 15 min to activate UGT by alamethicin. […]
Kinetic analyses were performed using the mean values of triplicate determinations with either pooled HLM, HIM, or recombinant human UGTs. All data were analyzed by nonlinear regression analysis using the GraphPad Prism 6 (GraphPad Software Inc., CA, United States). […] Intrinsic clearance (CLint) was calculated by dividing Vmax by Km.

- microsomal CLint: 0.56 µL/min/mg
Structure (SMILES): CCCSc1nc(N[C@@H]2C[C@H]2c2ccc(F)c(F)c2)c2nnn([C@@H]3C[C@H](OCCO)[C@@H](O)[C@H]3O)c2n1 [Ticagrelor]
